Target: human Kv1.3 (Homo sapiens, UniProt P22001)
Experiment: IonWorks automated patch clamp assay of inhibitory activity against Kv1.3
Assay type: cell-based
Settings: automated patch clamp method; CHO-K1 cells stably expressing human Kv1.3
Description: I. IonWorks Automated Patch Clamp Assay of Inhibitory Activity Against Kv1.3
The principle and method for Kv1.3 IonWorks assay can be found in Schroeder et al. [Schroeder et al. J Biomol Screen 2003, 8(1):50-64]
Inhibitory activity of the compounds against Kv1.3 was assessed using a CHO-K1 recombinant cell line stably expressing human Kv1.3 (Charles River, Calif.). The cells were cultured in an F-12K culture medium containing 5% calf serum (Invitrogen, Carlsbad. Calif.) in an incubator at 37° C. and under air humidity with 6% CO2. Prior to be fed in the IonWorks system, the adherent cells were treated with Versene at 37° C. for 6-7 min. After gently beating the culture flask, the cells were re-suspended in a PBS phosphate buffer, and then were centrifuged at 50×g for 4 min. After a short grinding, the cells were eventually re-suspended in an external recording solution at a density of approximately 1×10^6/mL.
The compounds were dissolved in DMSO to formulate a final assay concentration of 300× on the master plate. The final gradient assay concentrations were […], 0.096, 0.048, 0.24, 1.2, 6 and 30 μM. All 300× stock solutions of each compound in DMSO were transferred to a 384-well plate with 2 μl per well. The plates were sealed and stored at −80° C. until the day of assay.
On the day of assay, the plates were each thawed at room temperature. After centrifugation, 198 μl of the external recording solution (with the components of: 130 mM Na-Gluconate, 20 mM NaCl, 4 mM KCl, 1 mM MgCl2, 1.8 mM CaCl2, 5 mM Glucose and 10 mM HEPES, pH7.3) was added and mixed thoroughly. This step provided a 1:100 dilution for the compounds. After addition of cells to IonWorks, a further 1:3 dilution was carried out, resulting in a total dilution of 1:300. At least 8 wells were reserved as blank control on each of the plates, i.e., containing only 0.3% DMSO. In addition, at least 8 wells were reserved as positive control to detect the specificity to cell signals. Fluoxetine, a compound as the positive control, was assayed at its maximum blocking concentration (100 μm) and secondary maximum blocking concentration (10 μm). In addition, an internal recording solution used in the assay (with the components of: 100 mM K-gluconate, 40 mM KCl, 1 mM MgCl2, 1 mM EGTA and 10 mM HEPES, pH7.3) contained Amphotericin B at a final concentration of 200 μg/mL to gain current channels inside the cells. The osmotic pressure of the solution was adjusted with sucrose.
Experimental procedures were carried out following the protocols as set by IonWorks Quattro system (Molecular Devices, San Jose, CA). The current of human Kv1.3 was elicited to 0 millivolt (mV) for four times by a pulse lasting 1 second. A potential of −80 mV was maintained between pulses, for 5 seconds. First, a early voltage application program was started in the IonWorks Quattro system, and then the compounds were added and incubated for 600 seconds. Next, a late voltage application program was started until completion of all assays.
The maximum peak outward currents both before and after addition of the compounds as well as the average tail current elicited when the fourth pulse rose to 0 mV were measured. The inhibitory activity of the compounds against Kv1.3 can be calculated by dividing the measured current amplitude after addition of the compounds by the measured current amplitude before addition of the compounds.
All data was calibrated by a data filtration program of the IonWorks Quattro system. The filtration standard was that: seal quality >30 MΩ, decrease of seal resistance <50% and current amplitude >200 pA.

human Kv1.3, sequence (P22001 whole entry): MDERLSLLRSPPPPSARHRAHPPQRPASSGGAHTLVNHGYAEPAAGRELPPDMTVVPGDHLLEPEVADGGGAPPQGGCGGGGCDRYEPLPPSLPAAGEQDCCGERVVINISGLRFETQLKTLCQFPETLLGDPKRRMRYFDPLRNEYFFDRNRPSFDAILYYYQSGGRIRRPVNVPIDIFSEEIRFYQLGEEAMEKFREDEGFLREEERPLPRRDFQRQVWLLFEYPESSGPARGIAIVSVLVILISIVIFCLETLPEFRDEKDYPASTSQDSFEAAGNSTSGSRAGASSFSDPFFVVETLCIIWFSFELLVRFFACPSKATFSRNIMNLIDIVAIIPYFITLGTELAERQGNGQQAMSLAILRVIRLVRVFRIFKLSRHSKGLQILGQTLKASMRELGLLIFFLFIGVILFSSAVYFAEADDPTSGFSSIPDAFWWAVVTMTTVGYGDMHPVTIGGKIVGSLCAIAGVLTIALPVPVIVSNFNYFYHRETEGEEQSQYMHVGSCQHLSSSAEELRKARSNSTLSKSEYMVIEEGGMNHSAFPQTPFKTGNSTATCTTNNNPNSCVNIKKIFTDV

Row | IC50 [nM] | SMILES
1 | 167 | CCCS(=O)(=O)N(Cc1ccncn1)c1ccc(N2CCN(C(=O)N(C)C)CC2)c(C#N)c1 [Compound 42, 4-(2-cyano-4-(N-(pyrimidin-4-ylmethyl)propanesulfonamido)phenyl)-N,N-dimethylpiperazin-1-formamide]
2 | 321 | CCCS(=O)(=O)N(Cc1ccccc1F)c1ccc(N2CCN(C(=O)OCC)CC2)c(C#N)c1 [Compound 25, Ethyl 4-(2-cyano-4-(N-(2-fluorobenzyl)propanesulfonamido)phenyl) piperazin-1-formate]
3 | 130 | CCCS(=O)(=O)N(Cc1ccc(F)cc1)c1ccc(N2CCC(O)CC2)c(C#N)c1 [Compound 19, N-(3-cyano-4-(4-hydroxypiperidin-1-yl)phenyl)-N-(4-fluorobenzyl)propane-1-sulfonamide]
4 | 101 | CCCCS(=O)(=O)N(Cc1ccc(F)cc1)c1ccc(N2CCN(C(=O)N(C)C)CC2)c(C#N)c1 [Compound 38, 4-(2-cyano-4-(N-(4-fluorobenzyl)butanesulfonamido)phenyl)-N,N-dimethylpiperazin-1-formamide]
5 | 224 | CCCS(=O)(=O)N(Cc1ccc(OC)cc1)c1ccc(N2CCN(S(=O)(=O)N(C)C)CC2)c(C#N)c1 [Compound 45, 4-(2-cyano-4-(N-(4-methoxybenzyl)propanesulfonamido)phenyl)-N,N-dimethylpiperazin-1-sulfonamide]
6 | 288 | CCCS(=O)(=O)N(Cc1ccc(F)cc1OC)c1ccc(N2CCN(C(=O)OCC)CC2)c(C#N)c1 [Compound 30, Ethyl 4-(2-cyano-4-(N-(4-fluoro-2-methoxybenzyl)propanesulfonamido)phenyl)piperazin-1-formate]
7 | 239 | CCCS(=O)(=O)N(Cc1ccc(OC)cc1)c1ccc(N2CCN(C(=O)OCC)CC2)c(C#N)c1 [Compound 27, Ethyl 4-(2-cyano-4-(N-(4-methoxybenzyl)propanesulfonamido)phenyl)piperazin-1-formate]
8 | 131 | CCCS(=O)(=O)N(Cc1ccncc1)c1ccc(N2CCN(C(=O)N(C)C)CC2)c(C#N)c1 [Compound 41, 4-(2-cyano-4-(N-(pyridin-4-ylmethyl)propanesulfonamido)phenyl)-N,N-dimethylpiperazin-1-formamide]
9 | 160 | CCCS(=O)(=O)N(Cc1ccc(F)cc1)c1ccc(N2CCN(C(=O)OCC)CC2)c(C(F)(F)F)c1 [Compound 49]

Further lines, the compound ahead of its results:

Row | SMILES | IC50 [nM]
10 | CCOC(=O)N1CCN(c2ccc(N(Cc3ccc(F)c(OC)c3)S(=O)(=O)c3ccc(F)cc3)cc2C#N)CC1 [Compound 3, ethyl 4-(2-cyano-4-((4-fluoro-N-(4-fluoro-3-methoxybenzyl)phenyl)sulfonamido)phenyl)piperazin-1-formate] | 107
11 | N#Cc1cc(N(Cc2ccc(F)cc2)S(=O)(=O)c2ccccc2)ccc1N1CCC(O)CC1 [Compound 20, N-(3-cyano-4-(4-hydroxypiperidin-1-yl)phenyl)-N-(4-fluorobenzyl)benzenesulfonamide] | 90
12 | CN(C)S(=O)(=O)N1CCN(c2ccc(N(Cc3ccc(F)cc3)S(=O)(=O)c3cccnc3)cc2C#N)CC1 [Compound 48, 4-(2-cyano-4-(-N-(4-fuorophenyl)pyridin-3-sulfonamido)phenyl)-N,N-dimethylpiperazin-1-sulfonamide] | 145
13 | CC(=O)N1CCC(Oc2ccc(N(Cc3ccccc3)S(=O)(=O)c3ccccc3)cc2C#N)CC1 [Compound 59, N-(4-((1-acetylpiperidin-4-yl)oxy)-3-cyanophenyl)-N-benzylbenzenesulfonamide] | 441
14 | CN(C)CCOC1CCN(c2ccc(N(Cc3ccccc3)S(=O)(=O)c3ccccc3)cc2C#N)CC1 [Compound 18, N-benzyl-N-(3-cyano-4-(4-(2-(dimethylamino)ethoxy)piperidin-1-yl)phenyl)benzenesulfonamide] | 101
15 | CCOC(=O)NC1CCN(c2ccc(N(Cc3ccccc3)S(=O)(=O)c3ccccc3)cc2C#N)CC1 [Compound 14, ethyl 1-(4-(N-benzylbenzenesulfonamido)-2-cyanophenyl)piperidin-4-yl carbamate] | 129
16 | CCOC(=O)N1CCN(c2ccc(N(CC(C)C)S(=O)(=O)c3ccccc3)cc2C#N)CC1 [Compound 13, ethyl 4-(2-cyano-4-(N-isobutylphenylsulfonamido)phenyl)piperazin-1-formate] | 6400
17 | CCCS(=O)(=O)N(Cc1ccco1)c1ccc(N2CCN(C(=O)OCC)CC2)c(C#N)c1 [Compound 33, Ethyl 4-(2-cyano-4-(N-(furan-2-ylmethyl)propanesulfonamido)phenyl) piperazin-1-formate] | 839
18 | CCCS(=O)(=O)N(Cc1cccc(OC)c1)c1ccc(N2CCN(C(=O)OCC)CC2)c(C#N)c1 [Compound 26, Ethyl 4-(2-cyano-4-(N-(3-methoxybenzyl)propanesulfonamido)phenyl) piperazin-1-formate] | 420
19 | CCCS(=O)(=O)N(Cc1cscn1)c1ccc(N2CCN(C(=O)OCC)CC2)c(C#N)c1 [Compound 34, Ethyl 4-(2-cyano-4-(N-(thiazol-4-ylmethyl)propanesulfonamido)phenyl) piperazin-1-formate] | 645
20 | N#Cc1cc(N(Cc2ccccc2)S(=O)(=O)c2ccccc2)ccc1N1CCC(O)CC1 [Compound 6, N-benzyl-N-(3-cyano-4-(4-hydroxypiperidin-1-yl)phenyl)benzenesulfonamide] | 193
21 | CC(=O)NC1CCN(c2ccc(N(Cc3ccccc3)S(=O)(=O)c3ccccc3)cc2C#N)C1 (stereo not shown) [Compound 15, N-(1-(4-(N-benzylbenzenesulfonamido)-2-cyanophenyl)pyrrolidin-3-yl)acetamide] | 310
22 | CN(C)S(=O)(=O)C1CCN(c2ccc(N(Cc3ccccc3)S(=O)(=O)c3ccccc3)cc2C#N)CC1 [Compound 12, 1-(4-(N-benzylbenzenesulfonamido)-2-cyanophenyl)-N,N-dimethylpiperidin-4-sulfonamide] | 234
23 | CCCS(=O)(=O)N(Cc1ccc(F)cc1)c1ccc(SC2CCN(C(C)=O)CC2)c(C#N)c1 [Compound 54, N-(4-((1-acetylpiperidin-4-yl)thio)-3-cyanophenyl)-N-(4-fluorobenzyl) propanesulfonamide] | 389
24 | CCCS(=O)(=O)N(Cc1ccccn1)c1ccc(N2CCN(C(=O)OCC)CC2)c(C#N)c1 [Compound 32, Ethyl 4-(2-cyano-4-(N-(pyridin-2-ylmethyl)propanesulfonamido)phenyl) piperazin-1-formate] | 165
25 | CCCS(=O)(=O)N(Cc1ccc(F)cc1)c1ccc(OC2CCNCC2)c(C#N)c1 [Compound 50, N-(3-cyano-4-(piperidin-4-yloxy)phenyl)-N-(4-fluorobenzyl) propanesulfonamide] | 370
26 | CCCS(=O)(=O)N(Cc1ccc(F)cc1)c1ccc(SC2CCNCC2)c(C#N)c1 [Compound 51, N-(3-cyano-4-(piperidin-4-ylthio)phenyl)-N-(4-fluorobenzyl) propanesulfonamide] | 412
27 | CCCS(=O)(=O)N(Cc1ccc(F)cc1)c1ccc(NC2CCN(C(C)=O)CC2)c(C#N)c1 [Compound 55, N-(4-((1-acetylpiperidin-4-yl)amino)-3-cyanophenyl)-N-(4-fluorobenzyl)propanesulfonamide] | 160
28 | CN(C)S(=O)(=O)N1CCN(c2ccc(N(Cc3ccnn3C)S(=O)(=O)c3ccc(F)cc3)cc2C#N)CC1 [Compound 46, 4-(2-cyano-4-((4-fluoro-N-((1-methyl-1H-pyrazol-5-yl)methyl)phenyl)sulfonamido)phenyl)-N,N-dimethylpiperazin-1-sulfonamide] | 356

Source: US11993576B2, “N-benzyl-N-arylsulfonamide derivative and preparation and use thereof” (Hangzhou Yirui Pharmaceutical Technology Co., Ltd, priority 2019, dated 2024)
